In US20160124002A1, “METHOD FOR DETECTING HYPOXIA OR DIAGNOSING HYPOXIA-RELATED DISEASES” (SEOUL NATIONAL UNIVERSITY R&DB FOUNDATION, priority 2013, published 2016):

System: THP-1 cell line
Test: Metabolites in culture medium of THP-1 cells under low oxygen with HIF-1 inhibition (LC/Q-TOF MS)
Format: cell-based, human
Details: THP-1 culture medium, low oxygen (1% O2)
Procedure: A THP-1 cell line, a human monocyte-derived cell line was cultured in the conditions of regular oxygen (21% oxygen), low oxygen (1% oxygen), and regular oxygen after low oxygen (reoxygenation), and then, the metabolites included in the culture media were identified and quantified using a LC/Q-TOF MS analysis as follows.
The human-derived monocyte cells (THP-1) (Korean Cell Line Bank, KCLB No. 40202) at 5×10^5 cells/4 mL medium were cultured in DMEM (Dulbecco's modified Eagle's medium) including 10% FBS (fetal bovine serum) under the condition of regular oxygen (21% O2, 5% CO2) at 37° C. for 24 hours, the condition of low oxygen (1% O2, 5% CO2) at 37° C. for 24 hours, or the condition of regular oxygen for 16 hours after low oxygen for 8 hours (reoxygenation) at 37° C.
After that, the media without the cells were isolated to obtain the samples to be analyzed. The media were subjected to a centrifugation at 3000 rpm and 4° C. to obtain supernatants only. The supernatants were then aliquoted and stored in a −70° C. cryogenic deep-freezer, and were thawed immediately before use.
In order to decrease the expression of a hypoxia-inducible factor-1 (HIF-1), a major regulator in a low oxygen environment, two types of si-HIF-1alpha (#1, 5′-CAAAGUUAAAGCAUCAGG-3′; #2, 5′-UGUACUGUCCUGUGGUGA-3′) were prepared, and then used for transfection into the cells using Lipofectamine RNA iMAX reagents (Life Technologies, USA) following the manufacturer's instruction. In addition, 2-methoxyestradiol (2ME2) and 17-N-Allylamino-17-demethoxygeldanamycin (17-AAG) used (Selleck chemicals) as the inhibitors of HIF-1 were used, and YC-1 was purchased from A.G. Scientific. The cells were treated also with 2ME2 and 17-AAG at the concentrations of 100 μM during the exposure of a low oxygen condition.
H2O (400 μl) at 4° C. and medium (100 μl) were put into a 1.5 ml micro tube so as to be diluted. After that, the sample was mixed well using a vortex, and then was filtered/centrifuged at 4° C. and 14,000 g for 20 minutes to obtain the supernatant thereof. The supernatant was collected in assay vials. In addition, for a QC (quality control) assay, the diluted samples of 50 μl from all the samples were mixed (pooling).
The samples that were prepared as described above were isolated by the system equipped with a reverse column, Zorbax SB-C18, 50×2.1 mm, 1.8 μm (Agilent Technologies, USA) in Binary Agilent 1200 series HPLC (Agilent Technologies). At this time, the assay sample in the amount of 5 μl was injected so as to pass through the column that was heated at 40° C. The metabolite sample was subjected to a gradient elution with 98% solvent A (2 mM ammonium formate and 0.1% formic acid in H2O) and 2% solvent B (0.1% formic acid in methanol) at the rate of 400 μl/min for 21 minutes. In order to avoid a cross-contamination, a blank run was performed between the sample runs.
ESI algorithm was used by coupling an Agilent 6530 quadrupole time-of-flight (Q-TOF) mass spectrometer (Agilent Technologies) with HPLC. Four centroid data per one second for one spectrum from 100 to 1100 m/z were obtained, and the m/z for all the spectra were calibrated in real time using the reference value externally supplied.
The metabolites were first identified from the mass spectra in the HMDB (http://www.hmdb.ca/) and METLIN (http://metlin.scripps.edu/) database using a software (Agilent MassHunter Qualitative Analysis (version B.05.00), Agilent Mass Profiler Professional (version B.02.02)). After that, the cleavage pattern by the LC/MS/MS assay of the corresponding metabolite was subjected to an additional confirmation work as compared to a practical standard material (Cayman, Ann Arbor, Mich., USA).
The relative concentration of the corresponding metabolites was calculated using the chromatograph area of the respective metabolite in the culture solution obtained from the corresponding cells. […]

[1] = treated with HIF-1 inhibitor (2ME2 and 17-AAG at 100 μM), FIG. 4
[2] = HIF-1 expression inhibited by si-RNA, FIG. 3

Compound	5-HETE that was increased under the low oxygen condition (H) [1]	5-oxoETE that was increased under the low oxygen condition (H) [1]	5-HETE that was increased under the low oxygen condition (H) [2]	5-oxoETE that was increased under the low oxygen condition (H) [2]
COc1cc2c(cc1O)CC[C@@H]1[C@@H]2CC[C@]2(C)[C@@H](O)CC[C@@H]12 [2ME2, 2-methoxyestradiol]	decreased	decreased		
C=CCNC1=C2C[C@@H](C)C[C@H](OC)[C@H](O)[C@@H](C)/C=C(\C)[C@H](OC(N)=O)[C@@H](OC)/C=C\C=C(/C)C(=O)NC(=CC1=O)C2=O [17-AAG, 17-N-Allylamino-17-demethoxygeldanamycin]	decreased	decreased		
OCc1ccc(-c2nn(Cc3ccccc3)c3ccccc23)o1 [YC-1]	decreased	decreased		
si-HIF-1a#1: si-RNA against HIF-1alpha, 5′-CAAAGUUAAAGCAUCAGG-3′ (chemistry not given here)			decreased	decreased
si-HIF-1a#2: si-RNA against HIF-1alpha, 5′-UGUACUGUCCUGUGGUGA-3′ (chemistry not given here)			decreased	decreased
